Test results: PubChem BioAssay AID330 (DTP/NCI, 2004)
Several values for one entry are separate records, joined by “and”; a condition that tells them apart may be missing. Identical values can stand only once. Toxic doses and inconclusive results are not listed. How the source made its calls: active means survival T/C of 150% or more; inactive means T/C below 125% in these data.

Tested on: P388 leukemia ip, CD2F1 mice, survival T/C
Experiment: NCI In Vivo Anticancer Drug Screen. Data for tumor model P388 Leukemia (intraperitoneal) in CD2F1 (CDF1) mice
Details: endpoint: median survival time, higher = longer survival
Outline: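 Mice carrying the transplanted tumor received test compound or vehicle. Survival was recorded in each group, and the value is the treated-group measurement divided by that of the vehicle-treated control group.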

[1] = dose: 50.0 mg/kg/injection, schedule: Q01DX005 (ip), vehicle: saline with Tween-80

Measured: T/C

CCCC(NC(=O)C(C)N)C(=O)O (stereo not given)
inactive: dose: 50.0 mg/kg/injection, schedule: Q01DX009 (ip), vehicle: Klucel (hydroxypropylcellulose) (HPC) 107 % of control | dose: 100.0 mg/kg/injection, schedule: Q01DX009 (ip), vehicle: Klucel (hydroxypropylcellulose) (HPC) 95 % of control | dose: 200.0 mg/kg/injection, schedule: Q01DX009 (ip), vehicle: Klucel (hydroxypropylcellulose) (HPC) 102 % of control | dose: 400.0 mg/kg/injection, schedule: Q01DX009 (ip), vehicle: Klucel (hydroxypropylcellulose) (HPC) 102 % of control

O=C(NC1CCCCC1)OCc1c(COC(=O)NC2CCCCC2)c2cccn2c2c1cnn2-c1ccccc1
inactive: dose: 15.0 mg/kg/injection, schedule: Q01DX005 (ip), vehicle: saline with Tween-80 93 % of control | dose: 30.0 mg/kg/injection, schedule: Q01DX005 (ip), vehicle: saline with Tween-80 88 % of control and 89 % of control | dose: 120.0 mg/kg/injection, schedule: Q01DX005 (ip), vehicle: saline with Tween-80 92 % of control and 96 % of control | dose: 240.0 mg/kg/injection, schedule: Q01DX005 (ip), vehicle: saline with Tween-80 99 % of control

COC1=C(O)C(=O)N(C)C(=O)C1
inactive: dose: 0.93 mg/kg/injection, schedule: Q01DX005 (ip), vehicle: saline 104 % of control | dose: 1.87 mg/kg/injection, schedule: Q01DX005 (ip), vehicle: saline 101 % of control | dose: 3.75 mg/kg/injection, schedule: Q01DX005 (ip), vehicle: Klucel (hydroxypropylcellulose) (HPC) 110 % of control | dose: 3.75 mg/kg/injection, schedule: Q01DX005 (ip), vehicle: saline 104 % of control

CN(C)C1=NN(Cc2ccccc2)C(=O)C1
inactive: dose: 50.0 mg/kg/injection, schedule: Q01DX009 (ip), vehicle: saline 105 % of control | dose: 100.0 mg/kg/injection, schedule: Q01DX009 (ip), vehicle: saline 103 % of control | dose: 200.0 mg/kg/injection, schedule: Q01DX009 (ip), vehicle: saline 96 % of control

Nc1nnc2nc(C(C(=O)c3ccc(F)cc3)c3nc4nnc(N)n4[nH]c3=O)c(=O)[nH]n12
inactive: [1] 98 % of control | dose: 100.0 mg/kg/injection, schedule: Q01DX005 (ip), vehicle: saline with Tween-80 92 % of control | dose: 200.0 mg/kg/injection, schedule: Q01DX005 (ip), vehicle: saline with Tween-80 91 % of control

C=C1C(=O)OC2C1CC(OC(C)=O)/C(C)=C/CCC1(C)OC21 (stereo not given)
inactive: dose: 4.0 mg/kg/injection, schedule: Q01DX009 (ip), vehicle: Klucel (hydroxypropylcellulose) (HPC) 93 % of control | dose: 8.0 mg/kg/injection, schedule: Q01DX009 (ip), vehicle: Klucel (hydroxypropylcellulose) (HPC) 97 % of control | dose: 16.0 mg/kg/injection, schedule: Q01DX009 (ip), vehicle: Klucel (hydroxypropylcellulose) (HPC) 96 % of control | dose: 32.0 mg/kg/injection, schedule: Q01DX009 (ip), vehicle: Klucel (hydroxypropylcellulose) (HPC) 93 % of control

Cc1ccccc1-n1c(=S)n(-c2ccc(Cl)cc2)c2nc3ccccc3nc1/c2=N/Nc1ccccc1
inactive: dose: 12.5 mg/kg/injection, schedule: Q01DX005 (ip), vehicle: saline with Tween-80 95 % of control | dose: 25.0 mg/kg/injection, schedule: Q01DX005 (ip), vehicle: saline with Tween-80 96 % of control | [1] 94 % of control

CC(=O)/C=C(\C)Nc1noc(-c2ccccc2)n1
inactive: dose: 4.38 mg/kg/injection, schedule: Q01DX005 (ip), vehicle: Klucel (hydroxypropylcellulose) (HPC) 102 % of control | dose: 8.75 mg/kg/injection, schedule: Q01DX005 (ip), vehicle: Klucel (hydroxypropylcellulose) (HPC) 96 % of control | dose: 17.5 mg/kg/injection, schedule: Q01DX005 (ip), vehicle: Klucel (hydroxypropylcellulose) (HPC) 101 % of control

CCS(=O)O
inactive: dose: 60.0 mg/kg/injection, schedule: Q01DX005 (ip), vehicle: saline 106 % of control | dose: 120.0 mg/kg/injection, schedule: Q01DX005 (ip), vehicle: saline 112 % of control | dose: 240.0 mg/kg/injection, schedule: Q01DX005 (ip), vehicle: saline 112 % of control

CCN(CC)C1=C(c2ccccc2)C(=O)C1(C#N)C(C)(C)C (stereo not given)
inactive: dose: 50.0 mg/kg/injection, schedule: Q01DX005 (ip), vehicle: Klucel (hydroxypropylcellulose) (HPC) 98 % of control | dose: 100.0 mg/kg/injection, schedule: Q01DX005 (ip), vehicle: Klucel (hydroxypropylcellulose) (HPC) 93 % of control | dose: 200.0 mg/kg/injection, schedule: Q01DX005 (ip), vehicle: Klucel (hydroxypropylcellulose) (HPC) 93 % of control

CCOC(=O)c1c2c(c[nH]c1=O)CCCC2
inactive: dose: 100.0 mg/kg/injection, schedule: Q01DX001 (ip), vehicle: saline with Tween-80 106 % of control | dose: 200.0 mg/kg/injection, schedule: Q01DX001 (ip), vehicle: saline with Tween-80 97 % of control

CCN(N=Nc1ccc(OC)cc1)c1ccc(OC)cc1
inactive: dose: 12.5 mg/kg/injection, schedule: Q01DX009 (ip), vehicle: saline with Tween-80 103 % of control and 96 % of control | dose: 25.0 mg/kg/injection, schedule: Q01DX009 (ip), vehicle: saline with Tween-80 108 % of control and 109 % of control | dose: 50.0 mg/kg/injection, schedule: Q01DX009 (ip), vehicle: saline with Tween-80 116 % of control and 117 % of control | dose: 100.0 mg/kg/injection, schedule: Q01DX009 (ip), vehicle: saline with Tween-80 100 % of control and 124 % of control
